These are literature values, as cited in article PMC9796293 (British Journal of Clinical Pharmacology, 2022).

The data set relates to monocytes.

Take `O=C(CCCCCCC(=O)Nc1ccc(CN[C@H](C(=O)OC2CCCC2)c2ccccc2)cc1)NO` [tefinostat]: for the setting “Phase I study in cancer patients ref 20”, the “lowest dose that induced monocyte histone acetylation” value is 40 mg. In addition, for the setting “clinical ref 20”, the monocytopaenia result was “not observed”.
